Reference: patent US7138527B2, “Indole derivatives useful for the treatment of diseases” (Pfizer Inc., priority 2002, dated 2006)

Molecular target: T1, human β2 adrenergic receptor (Homo sapiens, UniProt P07550)
T1 construct: expressed in transfected cells; host or cells: CHO (Chinese Hamster Ovary) cells, CHOhβ2
Experiment: Cell based cAMP assay in CHO cells recombinantly expressing the human β2 adrenergic receptor (cAMP-Flashplate)
Settings: CHOhβ2 cells, 1 hour incubation
Procedure: According to another alternative, the agonist potency for the […] of the indole derivatives of the formula (1) may also be determined by the measure of the concentration of compound according to the present invention required to produce half maximal effect (EC50) for the β2 receptor.
10 mM/100% DMSO (dimethylsulfoxide) stock of compound is diluted to required top dose in 4% DMSO. This top dose is used to construct a 10-point semi-log dilution curve, all in 4% DMSO. […] Data was expressed as % Isoprenaline response.
Cells were seeded to give about 90% confluency for testing.
25 μl/well each dose of compound was transferred into a cAMP-Flashplate® (NEN, SMP004B), with 1% DMSO as basal controls and 100 nM Isoprenaline as max controls. This was diluted 1:2 by the addition of 25 μl/well PBS. […] Compounds were incubated with 50 μl/well cells for 1 hour. […] Dose-response data was expressed as % Isoprenaline activity and fitted using a four parameter sigmoid fit.

T1 sequence (P07550 whole entry): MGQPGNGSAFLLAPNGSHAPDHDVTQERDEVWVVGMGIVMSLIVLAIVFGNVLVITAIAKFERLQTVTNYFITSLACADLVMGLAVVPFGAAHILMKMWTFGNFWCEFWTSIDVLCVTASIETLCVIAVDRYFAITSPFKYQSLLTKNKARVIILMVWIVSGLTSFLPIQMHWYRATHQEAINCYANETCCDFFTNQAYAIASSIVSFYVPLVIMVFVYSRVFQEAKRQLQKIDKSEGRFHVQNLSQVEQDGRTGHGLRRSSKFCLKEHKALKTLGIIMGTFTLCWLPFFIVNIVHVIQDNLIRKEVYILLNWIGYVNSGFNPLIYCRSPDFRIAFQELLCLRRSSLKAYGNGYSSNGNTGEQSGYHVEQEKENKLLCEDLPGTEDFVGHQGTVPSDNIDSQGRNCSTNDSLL

SMILES	EC50 [pM]
CCn1c(C(=O)NCc2ccc(Cl)cc2)cc2cc(C[C@@H](C)NC[C@H](O)c3ccc(O)c(CO)c3)ccc21 [Example 29, 1-Ethyl-5-[(2R)-2-({(2R)-2-hydroxy-2-(4-hydroxy-3-hydroxymethylphenyl)ethyl}amino)propyl}-N-(4-chlorobenzyl)-1H-indole-2-carboxamide]	3990
C[C@H](Cc1ccc2[nH]c(C(=O)NCc3ccc(C(F)(F)F)cc3)cc2c1)NC[C@H](O)c1ccc(O)c(CO)c1 [Example 2, 5-[(2R)-2-({(2R)-2-hydroxy-2-[4-hydroxy-3-(hydroxymethyl)phenyl]ethyl}amino)propyl]-N-[4-(trifluoromethyl)benzyl]-1H-indole-2-carboxamide]	800
COc1ccccc1CNC(=O)c1cc2cc(C[C@@H](C)NC[C@H](O)c3ccc(O)c(CO)c3)ccc2[nH]1 [Example 1, 5-[(2R)-2-({(2R)-2-hydroxy-2-[4-hydroxy-3-(hydroxymethyl)phenyl]ethyl}amino)propyl]-N-(2-methoxybenzyl)-1H-indole-2-carboxamide]	20
COc1cccc(CNC(=O)c2cc3cc(C[C@@H](C)NC[C@H](O)c4ccc(O)c(CO)c4)ccc3[nH]2)c1 [Example 4, 5-[(2R)-2-({(2R)-2-hydroxy-2-[4-hydroxy-3-(hydroxymethyl)phenyl]ethyl}amino)propyl]-N-(3-methoxybenzyl)-1H-indole-2-carboxamide]	120

The remaining compounds from weak to strong by EC50, led by results:

EC50 [pM]	SMILES
380	CC[C@H](Cc1ccc2[nH]c(C(=O)NCc3ccccc3)cc2c1)NC[C@H](O)c1ccc(O)c(CO)c1 [Example 36, 5-[(2R)-2-({(2R)-2-Hydroxy-2-(4-hydroxy-3-hydroxymethylphenyl)ethyl]amino)butyl}-N-benzyl-1H-indole-2-carboxamide]
50	COc1cccc(OC)c1CNC(=O)c1cc2cc(C[C@@H](C)NC[C@H](O)c3ccc(O)c(CO)c3)ccc2[nH]1 [Example 3, N-(2,6-dimethoxybenzyl)-5-[(2R)-2-({(2R)-2-hydroxy-2-[4-hydroxy-3-(hydroxymethyl)phenyl]ethyl}amino)propyl]-1H-indole-2-carboxamide]
20	COc1cc(O)cc(OC)c1CNC(=O)c1cc2cc(C[C@@H](C)NC[C@H](O)c3ccc(O)c(CO)c3)ccc2[nH]1 [Example 9, 5-[(2R)-2-({(2R)-2-Hydroxy-2-(4-hydroxy-3-hydroxymethylphenyl)ethyl]amino)propyl]-N-(4-hydroxy-2,6-dimethoxybenzyl)-1H-indole-2-carboxamide]
20	C[C@H](Cc1ccc2[nH]c(C(=O)N(C)Cc3ccccc3)cc2c1)NC[C@H](O)c1ccc(O)c(CO)c1 [Example 22, 5-[(2R)-2-({(2R)-2-Hydroxy-2-(4-hydroxy-3-hydroxymethylphenyl)ethyl}amino)propyl}-N-benzyl-N-methyl-1H-indole-2-carboxamide]
